Values quoted from earlier work in patent US10172922B2, “Rapid-acting insulin compositions” (Eli Lilly and Company, priority 2014, dated 2019).

Details: on a molar basis

## 28^B-L-Lysine-29^B-L-proline human insulin [Insulin lispro]
  Potency relative to human insulin: equipotent to human insulin on a molar basis
